Data on two compounds can be found in BindingDB's records for patent US20250263370 (Tay Therapeutics, 2025).

In test [1] the target is T1, Bromodomain-containing protein 4 [348-457] (Human, UniProt O60885).
T1 construct: 348-457
The test is described as follows: Biological Activity Primary Activity Assay.
Description: (§1) 90 μL per well of cell suspension without tracer was also dispensed into at least 3 wells as “No tracer control samples” for background correction. Serially diluted test compounds were prepared at 1000× concentration in DMSO and further diluted to 10× concentration in Opti-MEM. […] Plates were then incubated at 37° C. +5% 002 incubator for 2 hours.

For test [2], the target named is Bromodomain-containing protein 4 [58-164] (Homo sapiens, UniProt O60885). In words: Biological Activity Primary Activity Assay.
Description: as §1

Consider `CNC(=O)c1c(OC(C)c2ccc3c(c2)COC3)cc(C(N)=O)n1C` (centres undefined) [US20250263370, Example 15], for which the 50% inhibitory concentration (IC50) result is “in the range around 0.6 µM” in test [1] and greater than 10 µM in test [2].
For `CCNC(=O)c1[nH]c(C(=O)NC)c([C@H](C)c2ccccc2F)c1C` [US20250263370, Example 74], the IC50 result is “in the range around 5.5 µM” in test [1] and greater than 10 µM in test [2].
